Target: T1, PLK1 (Homo sapiens, UniProt P53350)
T1 construct: Full-length, active GST-PLK1 is purified from Sf9 insect cells; made in house; host or cells: Sf9 insect cells
Assay: Biochemical Characterization Assay: HTRF kinase assay, GST-PLK1 phosphorylation of GST-p53
Details: GST-PLK1, GST-p53 substrate
Experimental: Biochemical Characterization Assay
Full-length, active GST-PLK1 is purified from Sf9 insect cells, and full-length GST-p53 is purified from E. coli. Anti-phospho p53 antibody is from Cell Signaling Technology. Europium-conjugated anti-rabbit antibody is from PerkinElmer Life and Analytical Sciences. APC-conjugated anti-GST antibody is from Prozyme.
Six microliters of GST-PLK1 (3 ug/mL) in Kinase Assay Buffer are then added and the solution incubated at 37° C. for 35 minutes. Six microliters of solution containing 43 mM EDTA to stop the reaction and a 1:600 dilution of anti-phospho-p53 antibody in 20 mM HEPES pH 7, 50 mM NaCl, and 0.5 mg/mL BSA (Antibody Binding Buffer) are added and the solution incubated at 37° C. for 30 minutes. […] The HTRF signal is read on an Envision reader from PerkinElmer Life and Analytical Sciences.

T1 sequence (P53350 whole entry): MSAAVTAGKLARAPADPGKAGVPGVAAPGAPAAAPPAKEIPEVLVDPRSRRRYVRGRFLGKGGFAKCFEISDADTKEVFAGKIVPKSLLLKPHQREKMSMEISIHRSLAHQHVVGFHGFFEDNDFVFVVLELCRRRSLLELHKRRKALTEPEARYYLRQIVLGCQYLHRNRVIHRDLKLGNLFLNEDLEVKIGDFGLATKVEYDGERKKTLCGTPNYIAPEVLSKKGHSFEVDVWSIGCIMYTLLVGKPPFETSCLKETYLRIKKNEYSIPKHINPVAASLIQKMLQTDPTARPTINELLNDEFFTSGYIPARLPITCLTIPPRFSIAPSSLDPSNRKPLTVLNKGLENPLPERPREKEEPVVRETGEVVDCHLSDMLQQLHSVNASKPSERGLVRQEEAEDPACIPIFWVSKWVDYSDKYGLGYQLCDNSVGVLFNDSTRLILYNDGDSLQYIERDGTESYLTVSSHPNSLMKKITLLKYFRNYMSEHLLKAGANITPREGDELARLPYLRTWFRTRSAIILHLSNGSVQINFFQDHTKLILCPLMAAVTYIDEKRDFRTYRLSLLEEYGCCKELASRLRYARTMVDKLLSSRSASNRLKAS

SMILES	IC50	IC50 (ATP)
CCOc1cc(C(=O)NCCCN(C)C)ccc1Nc1ncc2c(n1)N(C1CCCC1)CC(F)(F)C(=O)N2C [Example I-219, 4-(9-cyclopentyl-7,7-difluoro-5-methyl-6-oxo-6,7,8,9-tetrahydro-5H-pyrimido[4,5-b][1,4]diazepin-2-ylamino)-N-(3-dimethylamino-propyl)-3-ethoxy-benzamide]	1 to 50 nM	
COc1cc(C(N)=O)ccc1Nc1ncc2c(n1)N(C(C)C)CC(F)(F)C(=O)N2C [Example I-294, 4-(7,7-difluoro-9-isopropyl-5-methyl-6-oxo-6,7,8,9-tetrahydro-5H-pyrimido[4,5-b][1,4]diazepin-2-ylamino)-3-methoxy-benzamide]	1 to 50 nM	
COc1cc(C(=O)NC2CCN(c3ccncc3)CC2)ccc1Nc1ncc2c(n1)N(C1CCCC1)CC(F)(F)C(=O)N2C [Example I-62, 4-(9-cyclopentyl-7,7-difluoro-5-methyl-6-oxo-6,7,8,9-tetrahydro-5H-pyrimido[4,5-b][1,4]diazepin-2-ylamino)-3-methoxy-N-(3,4,5,6-tetrahydro-2H-[1,4′]bipyridinyl-4-yl)-benzamide]		1 to 50 nM
CCc1cc(C(=O)NC2CCN(C(=O)OC(C)(C)C)CC2)ccc1Nc1ncc2c(n1)N(C1CCCC1)CC(F)(F)C(=O)N2C [Example I-201, 4-[4-(9-cyclopentyl-7,7-difluoro-5-methyl-6-oxo-6,7,8,9-tetrahydro-5H-pyrimido[4,5-b][1,4]diazepin-2-ylamino)-3-ethyl-benzoylamino]-piperidine-1-carboxylic acid tert-butyl ester]	51 to 500 nM	
CCN1CCC(NC(=O)c2ccc(Nc3ncc4c(n3)N(C3CCC3)CC(F)(F)C(=O)N4C)c(OC)c2)CC1 [Example I-10, 4-(9-cyclobutyl-7,7-difluoro-5-methyl-6-oxo-6,7,8,9-tetrahydro-5H-pyrimido[4,5-b][1,4]diazepin-2-ylamino)-N-(1-ethyl-piperidin-4-yl)-3-methoxy-benzamide]		1 to 50 nM
COc1cc(C(=O)N[C@H]2CC[C@@H](N3CCN(CC4CC4)CC3)CC2)ccc1Nc1ncc2c(n1)N(C1CCCC1)CC(F)(F)C(=O)N2C [Example I-299, 4-(9-cyclopentyl-7,7-difluoro-5-methyl-6-oxo-6,7,8,9-tetrahydro-5H-pyrimido[4,5-b][1,4]diazepin-2-ylamino)-N-[cis-4-(4-cyclopropylmethyl-piperazin-1-yl)-cyclohexyl]-3-methoxy-benzamide]	1 to 50 nM	
CNC(=O)c1ccc(Nc2ncc3c(n2)N(C2CCCC2)CC(F)(F)C(=O)N3)cc1 [Example I-133, 4-(9-cyclopentyl-7,7-difluoro-6-oxo-6,7,8,9-tetrahydro-5H-pyrimido[4,5-b][1,4]diazepin-2-ylamino)-N-methyl-benzamide]		500 to 5000 nM
CCc1cc(C(=O)NC)ccc1Nc1ncc2c(n1)N(C1CCCC1)CC(F)(F)C(=O)N2C [Example I-200, 4-(9-cyclopentyl-7,7-difluoro-5-methyl-6-oxo-6,7,8,9-tetrahydro-5H-pyrimido[4,5-b][1,4]diazepin-2-ylamino)-3-ethyl-N-methyl-benzamide]	1 to 50 nM	
CNC(=O)c1ccc(Nc2ncc3c(n2)N(C2CCCCC2)CC(F)(F)C(=O)N3C)cc1 [Example I-258, 4-(9-cyclohexyl-7,7-difluoro-5-methyl-6-oxo-6,7,8,9-tetrahydro-5H-pyrimido[4,5-b][1,4]diazepin-2-ylamino)-N-methyl-benzamide]	1 to 50 nM	
COc1cc(C(=O)NC2CN(C)C2)ccc1Nc1ncc2c(n1)N(C1CCCC1)CC(F)(F)C(=O)N2C [Example I-99, 4-(9-cyclopentyl-7,7-difluoro-5-methyl-6-oxo-6,7,8,9-tetrahydro-5H-pyrimido[4,5-b][1,4]diazepin-2-ylamino)-3-methoxy-N-(1-methyl-azetidin-3-yl)-benzamide]		1 to 50 nM
CN1CCC(NC(=O)c2ccc(Nc3ncc4c(n3)N(C3CCCC3)CC(F)(F)C(=O)N4)cc2)CC1 [Example I-134, 4-(9-cyclopentyl-7,7-difluoro-6-oxo-6,7,8,9-tetrahydro-5H-pyrimido[4,5-b][1,4]diazepin-2-ylamino)-N-(1-methyl-piperidin-4-yl)-benzamide]		51 to 500 nM
COc1cc(C(=O)NCCO)ccc1Nc1ncc2c(n1)N(C1CCCC1)CC(F)(F)C(=O)N2C [Example I-30, 4-(9-cyclopentyl-7,7-difluoro-5-methyl-6-oxo-6,7,8,9-tetrahydro-5H-pyrimido[4,5-b][1,4]diazepin-2-ylamino)-N-(2-hydroxy-ethyl)-3-methoxy-benzamide]		1 to 50 nM
Cc1cc(C(=O)NCCN(C)C)ccc1Nc1ncc2c(n1)N(C1CCCC1)CC(F)(F)C(=O)N2C [Example I-188, 4-(9-cyclopentyl-7,7-difluoro-5-methyl-6-oxo-6,7,8,9-tetrahydro-5H-pyrimido[4,5-b][1,4]diazepin-2-ylamino)-N-(2-dimethylamino-ethyl)-3-methyl-benzamide]	1 to 50 nM	
CCN1CCC(NC(=O)c2ccc(Nc3ncc4c(n3)N(C3CCCC3)CC(F)(F)C(=O)N4C)c(C(F)(F)F)c2)CC1 [Example I-206, 4-(9-cyclopentyl-7,7-difluoro-5-methyl-6-oxo-6,7,8,9-tetrahydro-5H-pyrimido[4,5-b][1,4]diazepin-2-ylamino)-N-(1-ethyl-piperidin-4-yl)-3-trifluoromethyl-benzamide]	1 to 50 nM	
COc1cc(C(N)=O)ccc1Nc1ncc2c(n1)N([C@@H]1C[C@H]1c1ccccc1)CC(F)(F)C(=O)N2C (relative stereo) [Example I-289, 4-[7,7-difluoro-5-methyl-6-oxo-9-(trans-2-phenyl-cyclopropyl)-6,7,8,9-tetrahydro-5H-pyrimido[4,5-b][1,4]diazepin-2-ylamino]-3-methoxy-benzamide]	> 5000 nM	
COc1cc(C(N)=O)ccc1Nc1ncc2c(n1)N(C1CCCC1)CC(F)(F)C(=O)N2 [Example I-152, 4-(9-cyclopentyl-7,7-difluoro-6-oxo-6,7,8,9-tetrahydro-5H-pyrimido[4,5-b][1,4]diazepin-2-ylamino)-3-methoxy-benzamide]		500 to 5000 nM
COc1cc(C(N)=O)ccc1Nc1ncc2c(n1)N(CCc1cccs1)CC(F)(F)C(=O)N2C [Example I-271, 4-[7,7-difluoro-5-methyl-6-oxo-9-(2-thiophen-2-yl-ethyl)-6,7,8,9-tetrahydro-5H-pyrimido[4,5-b][1,4]diazepin-2-ylamino]-3-methoxy-benzamide]	51 to 500 nM	
COc1cc(C(=O)NC2CCN(CCF)CC2)ccc1Nc1ncc2c(n1)N(C1CCCC1)CC(F)(F)C(=O)N2C [Example I-75, 4-(9-cyclopentyl-7,7-difluoro-5-methyl-6-oxo-6,7,8,9-tetrahydro-5H-pyrimido[4,5-b][1,4]diazepin-2-ylamino)-N-[1-(2-fluoro-ethyl)-piperidin-4-yl]-3-methoxy-benzamide]		1 to 50 nM
CCc1cc(C(=O)NCCN(C)C)ccc1Nc1ncc2c(n1)N(C1CCCC1)CC(F)(F)C(=O)N2C [Example I-198, 4-(9-cyclopentyl-7,7-difluoro-5-methyl-6-oxo-6,7,8,9-tetrahydro-5H-pyrimido[4,5-b][1,4]diazepin-2-ylamino)-N-(2-dimethylamino-ethyl)-3-ethyl-benzamide]	1 to 50 nM	

Reference: patent US8003785B2 (Takeda Pharmaceutical Company Limited, priority 2008, dated 2011)
